The values that follow come from patent publication US6455700B1, “Process for preparing guanidine and amidine derivatives” (Boehringer Ingelheim Pharma KG., priority 1998, dated 2002).

Structures can show the parent of a compound that is named as a salt.

The target in data set [1] is T1, NK1 receptor (substance P receptor) (Homo sapiens, UniProt P25103).
T1 construct: expressed in transfected cells; host or cells: human lymphoblastoma cells (IM-9)
Kind of data set: NK1 receptor affinity, displacement of 125I-labelled substance P on IM-9 cells. It counts as binding. The settings on record: human lymphoblastoma cells (IM-9) with cloned NK1 receptors. The protocol: Results of investigations into the compound according to the invention: The receptor affinity for the NK1 receptor (substance P receptor) is determined on human lymphoblastoma cells (IM-9) with cloned NK1 receptors, by measuring the displacement of ^125I-labelled substance P. The Ki values thus obtained show the efficacy of the compounds.

T1 sequence (P25103 whole entry): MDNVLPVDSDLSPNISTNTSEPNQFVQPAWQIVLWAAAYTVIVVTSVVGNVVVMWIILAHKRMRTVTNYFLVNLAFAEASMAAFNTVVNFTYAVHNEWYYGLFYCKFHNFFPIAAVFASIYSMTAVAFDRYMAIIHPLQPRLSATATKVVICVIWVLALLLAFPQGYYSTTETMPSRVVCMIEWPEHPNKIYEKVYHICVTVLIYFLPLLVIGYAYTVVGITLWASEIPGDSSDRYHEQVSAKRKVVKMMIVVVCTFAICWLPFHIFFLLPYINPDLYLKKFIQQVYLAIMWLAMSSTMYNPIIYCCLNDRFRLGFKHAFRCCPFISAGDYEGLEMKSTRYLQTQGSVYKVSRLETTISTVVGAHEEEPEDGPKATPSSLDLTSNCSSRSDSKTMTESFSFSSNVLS

`CN(CCc1cc(C(F)(F)F)cc(C(F)(F)F)c1)C(=O)C(c1ccccc1)N1CCN(C(=N)N)CC1` (racemic) (as salt: hydrochloride) [Example 1, (R,S)-1-Amidino-4-[2-phenylacetic acid-N-methyl-N-(3,5-bis-trifluoromethyl-phenyl-ethyl)-amide]-piperazine, dihydrochloride] yielded a melting point of 128 to 138 °C.
`CN(CCc1cc(C(F)(F)F)cc(C(F)(F)F)c1)C(=O)C(c1ccccc1)N1CCN(C(=N)N)CC1` (racemic) [Example 1, (R,S)-1-Amidino-4-[2-phenylacetic acid-N-methyl-N-(3,5-bis-trifluoromethyl-phenyl-ethyl)-amide]-piperazine, dihydrochloride] registered a Ki in data set [1] of 0.45 nM. This counts as sub-nanomolar.
With `CC(C)/N=C(/NC(C)C)N1CCN(C(C(=O)N(C)CCc2cc(C(F)(F)F)cc(C(F)(F)F)c2)c2ccccc2)CC1` (racemic) [Example 4], the melting point is 176 to 186 °C (dec.). Further, in data set [1], the Ki was found to be 0.53 nM.
Regarding `CN(CCc1cc(C(F)(F)F)cc(C(F)(F)F)c1)C(=O)C(c1ccccc1)N1CCN(C2=NCCN2)CC1` (centres unmarked) [Example 2], the melting point lay within 163 to 173 °C. Besides, the inhibition constant Ki in data set [1] was found to be 0.3 nM.
Taken in the same sequence, the figures for `CNC(=N)N1CCN(C(C(=O)N(C)CCc2cc(C(F)(F)F)cc(C(F)(F)F)c2)c2ccccc2)CC1` (centres unmarked) [Example 3] were 69 to 79 °C and 0.2 nM.
Taken in the same sequence, the figures for `CCN/C(=N/C(C)(C)C)N1CCN(C(C(=O)N(C)CCc2cc(C(F)(F)F)cc(C(F)(F)F)c2)c2ccccc2)CC1` (centres unmarked) [Example 5] were 174 to 184 °C (dec.) and 6.28 nM.
Molecule `CN(CCc1cc(C(F)(F)F)cc(C(F)(F)F)c1)C(=O)C(c1ccccc1)N1CCN(/C(=N\C2CCCCC2)N(C)C2CCCCC2)CC1` (centres unmarked) [Example 6] registered a Ki in data set [1] of 0.88 nM.
With `CN(CCc1cc(C(F)(F)F)cc(C(F)(F)F)c1)C(=O)C(c1ccccc1)N1CCN(/C(=N\C2CCCCC2)NC2CCCCC2)CC1` (centres unmarked) [Example 7], the melting point is 182 to 188 °C (dec.). Affinity in data set [1] was put at a Ki of 1.45 nM.
In the case of `CN(CCc1cc(C(F)(F)F)cc(C(F)(F)F)c1)C(=O)[C@H](c1ccccc1)N1CCN(C2=NCCN2C)CC1` [Example 8], the Ki in data set [1] worked out at 0.19 nM.
Molecule `C/N=C(\NC)N1CCN(C(C(=O)N(C)CCc2cc(C(F)(F)F)cc(C(F)(F)F)c2)c2ccccc2)CC1` (centres unmarked) [Example 9] had a melting point of 126 to 140 °C. In data set [1], this molecule displayed a Ki of 0.14 nM.
In turn, `CN(C)C(=N)N1CCN(C(C(=O)N(C)CCc2cc(C(F)(F)F)cc(C(F)(F)F)c2)c2ccccc2)CC1` (centres unmarked) [Example 10] returned a Ki in data set [1] of 0.12 nM.
With `CN(CCc1cc(C(F)(F)F)cc(C(F)(F)F)c1)C(=O)C(c1ccccc1)N1CCN(C(=N)Nc2ccccc2)CC1` (centres unmarked) [Example 12], the melting point was 240 to 245 °C (dec.). Further, in data set [1], the affinity, expressed as Ki, was 0.32 nM.
In turn, `CN(CCc1cc(C(F)(F)F)cc(C(F)(F)F)c1)C(=O)[C@H](c1ccccc1)N1CCN(/C(=N/C(=O)c2ccccc2)N(C)C)CC1.Cl` [Example 27] had a melting point of 124 to 128 °C. This molecule registered a Ki in data set [1] of 1.11 nM.
Turning to `Cc1ccc(/N=C(\Nc2ccc(C)cc2)N2CCN(C(C(=O)N(C)CCc3cc(C(F)(F)F)cc(C(F)(F)F)c3)c3ccccc3)CC2)cc1` (centres unmarked) [Example 28], the affinity in data set [1], expressed as Ki, was 4.16 nM.
`CN(CCc1cc(C(F)(F)F)cc(C(F)(F)F)c1)C(=O)[C@H](c1ccccc1)N1CCN(/C(=N/C(=O)c2ccccc2)Nc2ccccc2)CC1` [Example 29] showed a Ki in data set [1] of 0.87 nM.
The same measure, in the same setting: in the case of `CN(CCc1cc(C(F)(F)F)cc(C(F)(F)F)c1)C(=O)C(c1ccccc1)N1CCN(C(=N)N2CCOCC2)CC1` (centres unmarked) [Example 30] it was 0.17 nM.
Take `CC(C)N/C(=N\C(=O)c1ccccc1)N1CCN(C(C(=O)N(C)CCc2cc(C(F)(F)F)cc(C(F)(F)F)c2)c2ccccc2)CC1` (centres unmarked) [Example 31]: the affinity in data set [1], expressed as Ki, was 8.96 nM.
With `CC(C)NC(=N)N1CCN(C(C(=O)N(C)CCc2cc(C(F)(F)F)cc(C(F)(F)F)c2)c2ccccc2)CC1` (centres unmarked) [Example 32], the Ki in data set [1] was determined as 0.2 nM.
Still for that read-out and setting: in the case of `CN(CCc1cc(C(F)(F)F)cc(C(F)(F)F)c1)C(=O)C(c1ccccc1)N1CCN(/C(=N/C(=O)c2ccccc2)NCc2ccccc2)CC1` (centres unmarked) [Example 33] it was 13.2 nM.
On the same count and under the same terms, for `CN(CCc1cc(C(F)(F)F)cc(C(F)(F)F)c1)C(=O)C(c1ccccc1)N1CCN(/C(N)=N/Cc2ccccc2)CC1` (centres unmarked) [Example 34] the value was 0.37 nM.
Same read-out and setting: for `CN(CC(c1ccc(Cl)c(Cl)c1)N1CCN(C(=N)N)CC1)C(=O)Cc1cc(C(F)(F)F)cc(C(F)(F)F)c1` (centres unmarked) [Example 35] the value was 0.78 nM.
